The text below walks through data of ChEMBL document CHEMBL2074163, “Identification of monocarboxylate transporter 8 as a specific thyroid hormone transporter” (J Biol Chem, 2003).

Assay type in all cases: functional, cell-based
Holding throughout (details): Oocyte

Assay [1] deals with Monocarboxylate transporter 8 (Rattus norvegicus) (UniProt Q8K1P8). The assay can be described thus: TP_TRANSPORTER: uptake in Xenopus laevis oocytes.
Assay [2] shares this target. The assay can be described thus: TP_TRANSPORTER: inhibition of 3,3',5-triiodothyronine uptake (3,3',5-triiodothyronine:10nM, Tryptophan: 100 uM) in Xenopus laevis oocytes. The arrangement: scale not given: the % may be the effect or the level left.
Assay [3] has the same target. The assay can be described thus: TP_TRANSPORTER: inhibition of thyroxine uptake (thyroxine:10nM, Tryptophan: 100 uM) in Xenopus laevis oocytes. Set-up: scale not given: the % may be the effect or the level left.
Assay [4] has the same target. The assay can be described thus: TP_TRANSPORTER: inhibition of thyroxine uptake (thyroxine:10nM, D-3,3',5-triiodothyronine: 10 uM) in Xenopus laevis oocytes. The arrangement: scale not given: the % may be the effect or the level left.
The target is the same in assay [5]. The assay can be described thus: TP_TRANSPORTER: inhibition of 3,3',5-triiodothyronine uptake (3,3',5-triiodothyronine:10nM, D-3,3',5-triiodothyronine: 10 uM) in Xenopus laevis oocytes. The arrangement: scale not given: the % may be the effect or the level left.
Assay [6] has the same target. The assay can be described thus: TP_TRANSPORTER: inhibition of 3,3',5-triiodothyronine uptake (3,3',5-triiodothyronine:10nM, Tyrosine: 100 uM) in Xenopus laevis oocytes. The arrangement: scale not given: the % may be the effect or the level left.
Assay [7] shares this target. The assay can be described thus: TP_TRANSPORTER: inhibition of thyroxine uptake (thyroxine:10nM, Tyrosine: 100 uM) in Xenopus laevis oocytes. Set-up: scale not given: the % may be the effect or the level left.
For assay [8] the target is unchanged. The assay can be described thus: TP_TRANSPORTER: inhibition of thyroxine uptake (thyroxine:10nM, bromosul-fophthalein: 100 uM) in Xenopus laevis oocytes. Set-up: scale not given: the % may be the effect or the level left.
Assay [9] shares this target. The assay can be described thus: TP_TRANSPORTER: inhibition of 3,3',5-triiodothyronine uptake (3,3',5-triiodothyronine:10nM, bromosul-fophthalein: 100 uM) in Xenopus laevis oocytes. Set-up: scale not given: the % may be the effect or the level left.
Assay [10] has the same target. The assay can be described thus: TP_TRANSPORTER: inhibition of thyroxine uptake (thyroxine:10nM, L-thyroxine: 10 uM) in Xenopus laevis oocytes. The arrangement: scale not given: the % may be the effect or the level left.
Assay [11] has the same target. The assay can be described thus: TP_TRANSPORTER: inhibition of 3,3',5-triiodothyronine uptake (3,3',5-triiodothyronine:10nM, L-thyroxine: 10 uM) in Xenopus laevis oocytes. The arrangement: scale not given: the % may be the effect or the level left.
The target is the same in assay [12]. The assay can be described thus: TP_TRANSPORTER: inhibition of thyroxine uptake (thyroxine:10nM, N-bromoacetyl-3,3',5-triiodothyronine: 10 uM) in Xenopus laevis oocytes. Set-up: scale not given: the % may be the effect or the level left.
Assay [13] has the same target. The assay can be described thus: TP_TRANSPORTER: inhibition of 3,3',5-triiodothyronine uptake (3,3',5-triiodothyronine:10nM, N-bromoacetyl-3,3',5-triiodothyronine: 10 uM) in Xenopus laevis oocytes. The arrangement: scale not given: the % may be the effect or the level left.
Assay [14] has the same target. The assay can be described thus: TP_TRANSPORTER: inhibition of thyroxine uptake (thyroxine:10nM, D-thyroxine: 10 uM) in Xenopus laevis oocytes. The arrangement: scale not given: the % may be the effect or the level left.
The target is the same in assay [15]. The assay can be described thus: TP_TRANSPORTER: inhibition of 3,3',5-triiodothyronine uptake (3,3',5-triiodothyronine:10nM, D-thyroxine: 10 uM) in Xenopus laevis oocytes. Set-up: scale not given: the % may be the effect or the level left.

Sequence of Monocarboxylate transporter 8 (Rattus norvegicus) (Q8K1P8 whole entry): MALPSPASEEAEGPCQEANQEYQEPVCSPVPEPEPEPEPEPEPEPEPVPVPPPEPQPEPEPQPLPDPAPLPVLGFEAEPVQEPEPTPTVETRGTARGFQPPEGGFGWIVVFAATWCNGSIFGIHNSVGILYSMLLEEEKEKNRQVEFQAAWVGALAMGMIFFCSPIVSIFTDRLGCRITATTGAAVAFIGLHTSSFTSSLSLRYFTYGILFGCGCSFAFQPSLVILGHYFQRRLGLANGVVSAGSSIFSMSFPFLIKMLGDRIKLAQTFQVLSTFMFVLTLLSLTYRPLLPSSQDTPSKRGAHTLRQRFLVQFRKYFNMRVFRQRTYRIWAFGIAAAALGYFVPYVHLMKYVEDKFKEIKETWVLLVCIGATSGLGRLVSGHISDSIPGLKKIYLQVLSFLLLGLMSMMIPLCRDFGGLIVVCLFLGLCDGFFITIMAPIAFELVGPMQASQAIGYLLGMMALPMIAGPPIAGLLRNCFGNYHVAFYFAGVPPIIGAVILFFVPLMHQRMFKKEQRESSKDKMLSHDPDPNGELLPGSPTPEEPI

As for `NC(Cc1ccc(Oc2ccc(O)c(I)c2)c(I)c1)C(=O)O` (stereo unspecified), the Activity result in [1] is “substrate [+]”. Regarding `N[C@@H](Cc1c[nH]c2ccccc12)C(=O)O`, the results for the Activity result in [1], in assay [2] and in [3] were “is not a substrate [-]”, 0% and 22%, respectively.

For the compound `N[C@@H](Cc1ccc(Oc2cc(I)c(O)c(I)c2)c(I)c1)C(=O)O`, the Activity in assay [4] was 72%; in assay [5], 24%. For the compound `N[C@@H](Cc1ccc(O)cc1)C(=O)O`, the Activity entry in assay [1] is “is not a substrate [-]”; in assay [6] it was 0%; in [7], 37%. For `O=C1OC(c2ccc(O)c(S(=O)(=O)O)c2)(c2ccc(O)c(S(=O)(=O)O)c2)c2c(Br)c(Br)c(Br)c(Br)c21`, the Activity in assay [8] is 94%; in assay [9] it was 81%.

With `N[C@@H](Cc1cc(I)c(Oc2cc(I)c(O)c(I)c2)c(I)c1)C(=O)O`, the Activity in assay [10] was 69%; in assay [11], 26%. For `O=C(O)[C@@H](Cc1cc(I)c(Oc2cc(I)c(O)c(I)c2)c(I)c1)NS(=O)(=O)O`, the Activity entry in assay [1] is “is not a substrate [-]”. With `N[C@@H](Cc1ccccc1)C(=O)O`, the Activity entry in assay [1] is “is not a substrate [-]”. Same read-out and setting: the entry for `N[C@@H](Cc1cc(I)c(Oc2cc(I)c(OS(=O)(=O)O)c(I)c2)c(I)c1)C(=O)O` is “is not a substrate [-]”. Still for that read-out and setting: for `CC(C)C[C@H](N)C(=O)O` the value was “is not a substrate [-]”. On to `O=C(CBr)N[C@@H](Cc1cc(I)c(Oc2ccc(O)c(I)c2)c(I)c1)C(=O)O`, for which the figures for the Activity in [12] and in [13] were 90% and 67%, respectively.

Turning to `N[C@H](Cc1cc(I)c(Oc2cc(I)c(O)c(I)c2)c(I)c1)C(=O)O`, the results for the Activity in assay [14] and in assay [15] were 76% and 21%, respectively.
